Data from patent US20050214336A1, “Parasite control in animals” (priority 2002, published 2005).

Tested on: Musca domestica first instars
Experiment: Development of Musca domestica larvae on cattle dung following oral treatment of the animal (feed-through test)
Type: in vivo
Conditions: cattle 300 kg, 3 g active compound in capsule on three consecutive days, dung samples
From the text: Test for the development of Musca domestica larvae on cattle dung following oral treatment of the animal with active-compound-comprising formulation (feed-through test) Cattle 300 kg in weight are fed on three consecutive days with in each case 3 g of active compound in a capsule formulation. Dung samples of treated animals are populated with Musca domestica first instars, and the development into adult flies was monitored in comparison with the development of dung samples of an untreated control. Those substances which reliably prevent the development of adults over a period of four weeks are assessed as active.

Structure (SMILES): CCC(C)(C)C(=O)OC1=C(c2ccc(Cl)cc2Cl)C(=O)OC12CCCCC2 [compound A, 2,2-dimethyl-, 3-(2,4-dichlorophenyl)-2-oxo-1-oxaspiro[4,5]dec-3-en-4-yl-butanoate]
- long-term activity (prevention of development into adult flies) (after day 3, long-term (period of four weeks)): 100%
- activity (prevention of development into adult flies) (up to day 3 after the treatment): 50%
